Measured values reported in US20130150386A1 (priority 2011, published 2013).

Tests used:
[1] = in vivo; cited from earlier work
NSCLC patients = settings: E-cad 3+ sub-group [N=26]

Row | SMILES | half-life [1] | overall survival (NSCLC patients) [months]
1 | Nc1ccccc1NC(=O)c1ccc(CNC(=O)OCc2cccnc2)cc1 [Entinostat, N-(2-aminophenyl)-4-[N-(pyridine-3-yl)methoxycarbonylamino-methyl]-benzamide] | about 100 hours | –
2 | C#Cc1cccc(Nc2ncnc3cc(OCCOC)c(OCCOC)cc23)c1 [erlotinib/placebo] | – | 5.4
